The source of these data is US12036218B2, “Modulators of airway basal cells for the treatment or prevention of lung diseases” (Fraunhofer Gesellschaft zur Förderung der angewandten …, priority 2020, dated 2024).

The subject of series [1] is IPF-ABC. The experiment in a line: Human 3D bronchosphere assay, IPF-ABC single culture: bronchosphere formation. The format is cell-based. The following applies: IPF-ABC cultured in 3D, 21 days. As for the experimental part:
(§1) FIG. 5: SRC-inhibitor saracatinib abrogates bronchosphere formation. (A-E) Bronchosphere assays of human IPF-ABCs were performed w/wo IPF lung fibroblasts for 21 days. Cell cultures (n=12, in triplicates) were treated with either vehicle, saracatinib (600, 210, 75, 25, 8 nM), pirfenidone (1 mM) or nintedanib (1 μM). […] (G, H) In the same model we used GFP^+ fibroblasts to study fibroblast proliferation. […] For statistical comparison repeated measures ANOVA with Tukey correction for multiple testing was used.
(§2) Based on the Connectivity MAP predictions, the inventors tested whether saracatinib, a known SRC inhibitor previously tested in human cancer is able to modulate IPF-ABC phenotype. […] The results were similar in cells obtained from 12 different individuals with IPF (P<0.0001, FIG. 5B). […] Similar data were obtained by testing cell proliferation in the MTT assay (P<0.0001, FIG. 5C).
(§3) ABCs, either derived from IPF patients or HV, were cultured in matrigel (Corning) in a transwell system with or without lung fibroblasts either derived from patients with IPF or normal lung for 21 days (if not otherwise indicated) in the incubator (5% CO2, 37° C.). Medium exchange (BEGM (Lonza, Basel, Switzerland, #CC-3170)/DMEM (Dulbecco's Modified Eagle Medium (Gibco, Swit Fisher Scientific/Germany); ratio 1:1) was done every 7 days. In some experiments lentiviral transduced GFP expressing fibroblasts were used. Conditioned medium of the 3D organoid culture (day 7 and day 14) was used for ELISA and fibroblast stimulation experiments. Sircol assay (Scientific-Biocolor/UK, #S1000) was performed as recommended by the manufacturer on matrigel and conditioned medium harvested after 6 weeks of cell culture. Bronchosphere formation was documented by Axio Vert.A1/Zeiss/Germany and Axio Observer Z1/Zeiss/Germany. For histology, immunohistology and confocal laser microscopy 3D cell cultures were cryopreserved using Tissue-Tek and cryomolds (Hartenstein/Germany; #CMM). Detailed information is given in the supplement.

For series [2], the system named is IPF-ABC. The series can be described thus: MTT cell proliferation assay in IPF-ABC 3D culture. The format is cell-based, human. Conditions: IPF-ABCs without fibroblasts, 21 days; saracatinib 600-8 nM, pirfenidone 1 mM, nintedanib 1 μM. As for the experimental part:
as §1, §2, §3
A general note: Tetrazolium dyes change colour on reduction, which living cells bring about.

In series [3] the test system is IPF-ABC with IPF lung fibroblasts. The series can be described thus: MTT cell proliferation assay in IPF-ABC / IPF lung fibroblast co-culture. The format is cell-based, human. The following applies: in the presence of IPF lung fibroblasts, 21 days; saracatinib 600-8 nM, pirfenidone 1 mM, nintedanib 1 μM. As for the experimental part: as §1, §3
For series [4], the system named is IPF-ABC with lung fibroblasts. The experiment in a line: 3D co-culture model of IPF-ABC with lung fibroblasts: bronchosphere formation. Type of series: cell-based, human. Here is the method: as §1, §2, §3
The subject of another series is NRG mice. The experiment in a line: Humanized pulmonary fibrosis model: bleomycin plus intratracheal human IPF-ABCs in NRG mice. Type of series: in vivo. Here is the method:
FIG. 6: SRC-inhibitor saracatinib attenuates fibrosis in the humanized mouse model. NRG mice were intratracheally injected with a low dose of bleomycin and 3 days later with human ABCs derived from IPF patients. Mice (n=11 each group, 4 replicates (all data shown)) were treated oropharyngeally with or without saracatinib in a dose of 10 mg/kg once daily starting at day 4 (A-C) or at day 8 (D-F). […] All P values were determined by a paired comparison (t-test) testing the effect of saracatinib treatment for each human IPF cell line.
To test the effect of saracatinib on IPF-ABC induced fibrosis and remodeling in-vivo, the inventors returned to the minimal injury xenotransplant model in NRG mice. Overall, the inventors used IPF-ABCs from 38 different individuals with IPF in these experiments. Per IPF subject, IPF-ABCs were used in two animals, one treated with saracatinib and one with vehicle control, to account for interindividual variability. To test the effect of saracatinib on engraftment and development of fibrosis we started treatment at day 4 post injury, one day post IPF-ABC installation for a total of 18 days (FIG. 6A). […] To test the effect of saracatinib on established fibrosis the inventors performed another set of experiments in which treatment was delayed to day 8 when cell engraftment and fibrosis were already established.
Different mice strains were used for the experiments as indicated. B6;129Sv-Rag2tm1Fwa/ZTM (75) (Rag2−/−) and NOD.Cg-Rag1tm1Mom Il2rgtm1Wjl/SzJZtm (76) (NRG) were obtained from the central animal facility (Hannover Medical School, Hannover). NOD.Cg-Prkdcscid Il2rgtm1Wjl Tg(CAGGS-VENUS)1/Ztm (Venus-NSG) mice were kindly provided by Dr. Wiebke Garrels (Hannover Medical School). Mice received bleomycin dissolved in sterile saline at the dose of 1.2 mg/kg intratracheally on day 0. IPF-ABCs, HV-ABCs (Rag 2−/−: 0.3×105, NRG and NSG: 0.2×105) were injected intratracheally on day 3. In some experiments human IPF-ABCs transduced with a lentiviral vector encoding for GFP and luciferase were injected. Pairs of mice received the same IPF-ABC line and were later treated either with vehicle or saractinib (kindly provided by Leslie Cousens AstraZeneca) in a dose of 10 mg/kg, i.g. once daily. For histological and immunohistological analysis, the trachea was cannulated and lungs were insufflated with 4% paraformaldehyde in PBS at a pressure of 25 cm H2O, followed by removal of the heart and inflated lungs en bloc and immersion in 4% paraformaldehyde overnight at 4° C., and the tissues were processed to paraffin wax or were cryopreserved using Tissue Tek® O.C.T.™ compound. […] Collagen content was determined by quantifying hydroxyproline levels according to manufacturer's description. […]

The test system of the next series is lung fibroblasts. The series can be described thus: Fibroblast proliferation (GFP+ fibroblasts) in IPF-ABC co-culture. The format is cell-based, human. The following applies: GFP+ fibroblasts co-cultured with IPF-ABC. Here is the method: as §1, §2
ABCs, either derived from IPF patients or HV, were cultured in matrigel (Corning) in a transwell system with or without lung fibroblasts either derived from patients with IPF or normal lung for 21 days (if not otherwise indicated) in the incubator (5% CO2, 37° C.). […]

For another series, the system named is ABCs. The series can be described thus: Cellular vitality of ABCs. The format is cell-based, human. The following applies: all used concentrations (600, 210, 75, 25, 8 nM).
Description: as §2

The mark [5] stands for this setting: pirfenidone 1 mM, nintedanib 1 μM.
The mark [6] stands for this setting: 10 mg/kg once daily oropharyngeal, treatment from day 4, read at day 21.
Setting [7] is: 10 mg/kg once daily, treatment delayed to day 8 (day 8 to day 21), established fibrosis.

As to `Cc1ccc(=O)n(-c2ccccc2)c1` [pirfenidone], the bronchosphere formation entry in the series on IPF-ABC [1] (setting [5]) was “no visible effect”; in series [4] (setting [5]), “significantly reduced bronchosphere formation, but not completely”. In addition, the “cell proliferation as measured by MTI assay” value with IPF-ABC [2] is given as “slightly”. In series [3], the “cell proliferation as measured by the MTT assay” value is “less reduced”.
With `COC(=O)c1ccc2c(c1)NC(=O)/C2=C(\Nc1ccc(N(C)C(=O)CN2CCN(C)CC2)cc1)c1ccccc1` [nintedanib], the bronchosphere formation entry in the series with IPF-ABC [1] (setting [5]) is on record as “no visible effect”; in series [4] (setting [5]), “significantly reduced bronchosphere formation, but not completely”. Further, the “cell proliferation as measured by MTI assay” value in the series on IPF-ABC [2] was “slightly”. In addition, the “cell proliferation as measured by the MTT assay” value in series [3] is “less reduced”.
Consider `CN1CCN(CCOc2cc(OC3CCOCC3)c3c(Nc4c(Cl)ccc5c4OCO5)ncnc3c2)CC1` [saracatinib, N-(5-chloro-1,3-benzodioxol-4-yl)-7-[2-(4-methyl-1-piperazinyl)ethoxy]-5-[(tetrahydro-2H-pyran-4-yl]oxy)-4-quinazolinamine], for which the bronchosphere formation result is “complete abrogation” with IPF-ABC [1] (saracatinib 600 nM, 210 nM, and 75 nM); “did not have an effect” in series [4] (saracatinib 8 nM); “lower effect” in series [4] (saracatinib 25 nM); “completely blocked” in series [4] (saracatinib 600 nM, 210 nM and 75 nM). Moreover, the Ashcroft score in the series with NRG mice (setting [6]) is 1.4±0.7; in the series on NRG mice (setting [7]), “significant reductions”. In addition, the hydroxyproline/total-protein levels in the series with NRG mice (setting [6]) worked out at 0.7±0.6. The hydroxyproline content entry in the series with NRG mice (setting [7]) is listed as “significant reductions”. The “fibroblast proliferation in the co-culture” value in the series on lung fibroblasts is “substantially lower”. For the same molecule, the “cellular vitality of ABCs” value in the series on ABCs was “did not affect”. In addition, the “cell proliferation as measured by MTI assay” value with IPF-ABC [2] was “significantly reduced”. Besides, the “cell proliferation as measured by the MTT assay” value in series [3] was “significantly reduced”.
